Measurements published in ChEMBL document CHEMBL3507680, “University of Dundee, Gates Library screen for HepG2 cell viability”.

Experiment: Human HepG2 cell viability assay in 384 well format
Type: toxicity, cell-based
Design: dose 125 nL, time 70.5 hour; concentration not given beside the values
Settings: HepG2 cells, read-out: Inhibition

| SMILES | cytotoxicity at 70.5 h [%] |
| --- | --- |
| CCc1nnc2n1CCN(C(=O)c1cn(-c3ccccc3)nn1)C2 | 3.13 |
| Cc1nnc2n1CCN(C(=O)c1cn(-c3ccc(F)cc3)nn1)C2 | -0.105 |
| Cc1cc(NC(=O)N2CCOC(C(N)=O)C2)ccc1Br (centres undefined) | -12.3 |
| O=C(Nc1cccc(CN2CCC(CO)CC2)c1)c1cc(Cl)c[nH]1 | 32.7 |
| N#CCSCCCN1CCN(C(=O)c2ccccc2F)CC1 | -12.3 |
| CN(Cc1ccco1)C(=O)C1=NN(C)C(=O)CC1 | -3.82 |
| Cc1cccc(C(=O)N2CCCN(CCCSCC#N)CC2)c1 | -10.7 |
| CCCn1nc(C(=O)N(C)Cc2cnn(C)c2)ccc1=O | 0.0623 |
| Cc1ccc(N(Cc2ccco2)C(=O)CC2=NN(C)C(=O)C2)cc1 | -9.83 |
| COc1c(CNCc2cccnc2N2CCN(C)CC2)c(C)nn1C | 4 |
| CN(Cc1cccc(C#N)c1)S(=O)(=O)N1CCOCC1 | -9.82 |
| Cc1ccc(CNC(=O)NC2CCCN(c3ncccn3)C2)cn1 (centres undefined) | -10 |
| COc1ccc(CNC(=O)c2ccc(Cl)cc2F)cc1C(=O)O | -4.39 |
| Cc1ccc(OCCC(=O)N(C)CCC#N)cc1C | -7.6 |
| Cc1nn(CC(=O)N2CCN(Cc3cccnc3)CC2)c(C)c1Cl | -10.2 |
| Cc1cccc(OCCC(=O)N(C)CC(C)C#N)c1C (centres undefined) | 19.7 |
| COCCn1ccc(NC(=O)Nc2ccncc2)n1 | -3.96 |
| CCN(C(=O)Cc1ccc(NC(=O)NC2CC2)cc1)c1ccccc1 | -3.6 |
| CCc1cccc(C)c1NC(=O)C1CC(=O)N(Cc2ccccn2)C1 (centres undefined) | -3.75 |
| Cc1noc(C(C)C)c1C(=O)NS(=O)(=O)c1cccnc1 | 17.5 |

| SMILES | cytotoxicity at 70.5 h [%] |
| --- | --- |
| COCCN(C)C(=O)Nc1ccc2c(ccn2CC(=O)N(C)C)c1 | -3.43 |
| Cc1nc(CC(=O)N2CCN(c3ccc(N(C)C)cc3)CC2)cs1 | 4.33 |
| CCc1nccn1C1CCCN(C(=O)c2ccc(C(N)=O)cn2)C1 (centres undefined) | -9.53 |
| CC(NC(=O)c1ccc(=O)n(C)c1)c1ccc(OCC2CC2)c(F)c1 (centres undefined) | -11.1 |
| CCc1nccn1C1CCCN(C(=O)c2ccnc(N(C)C)c2)C1 (centres undefined) | -7.75 |
| CCc1csc(C2CCCN(C(=O)c3ccncc3)C2)n1 (centres undefined) | -5.33 |
| O=C(CN1CCCC1CC(=O)c1ccccc1)NCc1ccccn1 (centres undefined) | 4.93 |
| CSc1ccc(C(CNC(C)=O)N2CCc3sccc3C2)cc1 (centres undefined) | -12.8 |
| CCC(C)C(=O)NCCCn1nc(C)cc1C (centres undefined) | -13.2 |
| CCOc1cccc(C(=O)NCCC(=O)NCc2ccncc2)c1 | 23 |
| Cc1noc(C(C)N2CCN(c3ccc(C#N)cn3)CC2)n1 (centres undefined) | -10.1 |
| CC(C)c1noc(C(C)N2CCN(c3ccc(C#N)cn3)CC2)n1 (centres undefined) | -15.5 |
| CN(Cc1nccn1CC(F)(F)F)C(=O)c1cccc(N(C)C)c1 | 0.768 |
| CN(Cc1nccn1CC(F)(F)F)C(=O)c1ccc2c(c1)OCO2 | -11 |
| CCOc1ccc(C(=O)N(C)Cc2nccn2CC(F)(F)F)cc1 | -2.52 |
| O=C(c1n[nH]c(=O)c2ccccc12)N1CCCC1Cn1cccn1 (centres undefined) | -8.16 |
| Cc1cc(N2CCN(c3ccc(=O)[nH]n3)CC2)nc(-c2ccncc2)n1 | -5.53 |
| Cc1n[nH]c(C2CN(C(=O)c3cc(C4CC4)on3)CCO2)n1 (centres undefined) | 17 |
| O=C(NCCc1nnc2n1CCC2)NCC1(c2ccccc2F)CC1 | -6.03 |
| CC1CN(CC(=O)NC(=O)NCc2cccs2)CCN1CC(F)(F)F (centres undefined) | -11 |

| SMILES | cytotoxicity at 70.5 h [%] |
| --- | --- |
| COc1cc(C(=O)N(C)Cc2nccn2CC(F)(F)F)ccc1C | 15.7 |
| COC(=O)c1ccoc1CN(C)Cc1cc(OC)c(OC)cc1C | -12.1 |
| CCc1n[nH]c(C2CN(C(=O)c3cc(C4CC4)on3)CCO2)n1 (centres undefined) | -5.69 |
| O=C(CN1CCCC1COc1ccccc1)NCc1ccccn1 (centres undefined) | -10.9 |
| Cc1cnn(CC2CCCN2C(=O)CCc2c(C)nc(C)[nH]c2=O)c1 (centres undefined) | -10.8 |
| Cc1cnn(CC2CCCN2CC(=O)NCc2ccccn2)c1 (centres undefined) | -3.32 |
| CCc1nc(CN2CCCC(N(C)CCc3cccs3)C2)no1 (centres undefined) | 21.1 |
| CN(CCc1ccccn1)C1CCCN(Cc2noc(C3CC3)n2)C1 (centres undefined) | -4.84 |
| CC(=O)N1CCN(CCNS(=O)(=O)c2cc(F)ccc2C)CC1 | 4.62 |
| O=C(CC1CCCO1)NCCc1ccc(Br)cc1F (centres undefined) | -5.5 |
| COc1ccc(CNCCc2ccn(-c3ccccc3)n2)cc1O | -8.7 |
| O=C(CCC1CCCO1)NCc1ccc(Br)cc1F (centres undefined) | 12.7 |
| CSCC(=O)NC1CCN(C(C)c2ccccc2)CC1 (centres undefined) | -6.02 |
| Cc1cc(C#N)ccc1S(=O)(=O)NCc1cnc(N(C)C)n1C | -5.78 |
| Cc1nn(C)c(C)c1CC(C)NC(=O)NCc1ccoc1C (centres undefined) | -4.68 |
| COc1ccccc1CC(C)(C)NC(=O)CC(F)(F)F | -11.8 |
| Cn1cc(CNC(=O)C2CCCN(Cc3cccc(F)c3)C2)cn1 (centres undefined) | -11.1 |
| O=C1N(CC2CC2)C(c2c[nH]nc2-c2cccnc2)NC12CCCC2 (centres undefined) | -12.7 |
| CCN(Cc1nnnn1C1CC1)c1cc(C)ccc1C | -2.4 |
